From paper PMC10350928 (Journal of Medicinal Chemistry, 2023)

Columns and labels:
Rat hepatocytes = assay: Rat hepatocyte Clint; conditions: for RH: rat hepatocytes
WT c-MET [1] = molecular target: T1, WT c-MET (Homo sapiens, UniProt P08581); format: biochemical; conditions: Table 3; LLE = pIC50 – log D
P-gp (MDR1) = assay: MDR1-MDCK permeability and efflux; conditions: dog
[2] = Rat plasma pharmacokinetics; conditions: male, Han Wistar, iv, 0.5 mg/kg
Human hepatocytes = assay: Human hepatocyte Clint; conditions: Table 4
WT c-MET [3] = molecular target: T1, WT c-MET; format: binding; conditions: Table 1; LLE = pKd – log D
Log D shake-flask method = conditions: octanol/water, pH 7.4, logD, Table 1, octanol and water at pH7.4

T1 sequence (P08581 25-1390): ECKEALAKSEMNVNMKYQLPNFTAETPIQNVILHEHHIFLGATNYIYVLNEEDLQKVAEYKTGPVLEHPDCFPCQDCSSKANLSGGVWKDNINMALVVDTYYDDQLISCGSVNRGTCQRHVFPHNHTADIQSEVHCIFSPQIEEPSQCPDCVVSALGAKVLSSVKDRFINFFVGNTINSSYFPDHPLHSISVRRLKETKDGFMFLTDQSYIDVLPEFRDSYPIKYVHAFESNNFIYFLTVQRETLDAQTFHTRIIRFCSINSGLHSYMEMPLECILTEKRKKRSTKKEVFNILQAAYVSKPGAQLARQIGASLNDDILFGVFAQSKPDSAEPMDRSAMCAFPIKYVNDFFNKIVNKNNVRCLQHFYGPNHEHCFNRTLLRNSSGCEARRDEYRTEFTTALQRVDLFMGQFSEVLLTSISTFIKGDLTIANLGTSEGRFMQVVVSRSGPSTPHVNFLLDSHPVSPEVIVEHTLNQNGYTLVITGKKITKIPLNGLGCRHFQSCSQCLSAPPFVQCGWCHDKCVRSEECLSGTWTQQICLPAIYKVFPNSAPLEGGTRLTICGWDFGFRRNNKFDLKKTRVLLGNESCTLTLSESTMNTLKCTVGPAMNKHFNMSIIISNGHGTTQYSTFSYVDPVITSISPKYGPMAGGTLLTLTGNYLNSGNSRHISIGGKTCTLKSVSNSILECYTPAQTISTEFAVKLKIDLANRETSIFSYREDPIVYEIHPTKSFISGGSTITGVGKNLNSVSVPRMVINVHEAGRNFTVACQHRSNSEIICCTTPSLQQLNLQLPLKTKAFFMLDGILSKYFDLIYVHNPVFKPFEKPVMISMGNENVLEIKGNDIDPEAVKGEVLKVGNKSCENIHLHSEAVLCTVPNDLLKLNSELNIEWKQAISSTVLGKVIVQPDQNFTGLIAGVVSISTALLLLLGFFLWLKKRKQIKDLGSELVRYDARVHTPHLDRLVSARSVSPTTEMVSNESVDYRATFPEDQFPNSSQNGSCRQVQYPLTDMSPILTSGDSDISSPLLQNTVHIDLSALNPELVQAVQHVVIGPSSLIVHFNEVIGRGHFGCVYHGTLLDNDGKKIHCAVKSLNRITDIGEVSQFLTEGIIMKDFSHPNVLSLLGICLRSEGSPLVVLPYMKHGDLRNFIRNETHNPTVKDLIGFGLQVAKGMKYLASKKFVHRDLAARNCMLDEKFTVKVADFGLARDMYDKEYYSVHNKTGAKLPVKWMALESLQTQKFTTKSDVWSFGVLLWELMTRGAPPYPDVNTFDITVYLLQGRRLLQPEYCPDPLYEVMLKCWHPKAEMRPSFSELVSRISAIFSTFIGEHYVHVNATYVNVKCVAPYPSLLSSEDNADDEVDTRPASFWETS

SMILES	RH (Rat hepatocytes; Table 3)	Hepatocytes Rat (Rat hepatocytes; Table 4)	ADP-Glo assay LLE WT (WT c-MET [1])	efflux ratio at 2 h, 10 μM (P-gp (MDR1))	clearance [2]	Hepatocytes Human (Human hepatocytes)	RH (Rat hepatocytes; Table 1)	SPR assay LLE WT (WT c-MET [3])	logD (Log D shake-flask method)
C[C@@H](c1ccc(F)cc1)n1cc(-c2cc(F)cc3cn[nH]c23)c(=O)[nH]c1=O [Compound 27, (S)-5-(5-Fluoro-1H-indazol-7-yl)-1-(1-(4-fluorophenyl)ethyl)pyrimidine-2,4(1H,3H)-dione]	14.8 μL/min/10^6 cells	14.8 μL/min/10^6 cells	4.1	< 7	74 mL/min/kg	1.81 μL/min/10^6 cells			
CC(c1ccc(F)cc1)n1cc(-c2cc(F)cc(F)c2)c(=O)[nH]c1=O (stereo not drawn) [Compound 6, 5-(3,5-Difluorophenyl)-1-(1-(4-fluorophenyl)ethyl)pyrimidine-2,4(1H,3H)-dione]							26.8 μL/min/10^6 cells	2.6	3.3
